Test results: PubChem BioAssay AID266 (DTP/NCI, 2004)
Where “and” joins values, the source holds several entries; their conditions need not be identical. Identical values can stand only once. Records with an inconclusive call do not appear.

System: Nude mice, LX-1 lung xenograft intrarenal, tumor weight T/C
Experiment: NCI In Vivo Anticancer Drug Screen. Data for tumor model Human Lung LX-1 Xenograft (intrarenal inoculation) in NU/NU BALB/C (nude) mice
Details: endpoint: mean tumor weight change, higher = larger tumour
Protocol: The antitumor activity of compounds was measured in mice bearing transplantable tumors. Survival or tumor size were measured and the results are expressed as the measurement made in the treated group (T) divided by the measurement made in the vehicle treated control group (C). The tumor model used in this assay is Human Lung LX-1 Xenograft (intrarenal inoculation) in NU/NU BALB/C (nude) mice

[1] = dose: 200.0 mg/kg/injection, schedule: Q04DX003 (sc), vehicle: saline
[2] = dose: 25.0 mg/kg/injection, schedule: Q01DX010 (sc), vehicle: saline
[3] = dose: 50.0 mg/kg/injection, schedule: Q01DX010 (sc), vehicle: saline
[4] = dose: 150.0 mg/kg/injection, schedule: Q04DX003 (sc), vehicle: Klucel (hydroxypropylcellulose) (HPC)
[5] = dose: 300.0 mg/kg/injection, schedule: Q04DX003 (sc), vehicle: Klucel (hydroxypropylcellulose) (HPC)
[6] = dose: 600.0 mg/kg/injection, schedule: Q04DX003 (sc), vehicle: Klucel (hydroxypropylcellulose) (HPC)
[7] = dose: 50.0 mg/kg/injection, schedule: Q04DX003 (sc), vehicle: saline
[8] = dose: 100.0 mg/kg/injection, schedule: Q04DX003 (sc), vehicle: saline
[9] = dose: 300.0 mg/kg/injection, schedule: Q04DX003 (sc), vehicle: saline with Tween-80
[10] = dose: 600.0 mg/kg/injection, schedule: Q04DX003 (sc), vehicle: saline with Tween-80
[11] = dose: 1200.0 mg/kg/injection, schedule: Q04DX003 (sc), vehicle: saline with Tween-80
[12] = dose: 2400.0 mg/kg/injection, schedule: Q04DX003 (sc), vehicle: saline with Tween-80

Cn1cnc([N+](=O)[O-])c1[Se]c1nc(N)nc2nc[nH]c12
T/C (dose: 50.0 mg/kg/injection, schedule: Q01DX010 (sc), vehicle: water): 64 % of control
T/C (dose: 100.0 mg/kg/injection, schedule: Q01DX010 (sc), vehicle: water): 69 % of control

NCCCNCCSP(=O)(O)O
T/C [1]: 99 % of control
T/C (dose: 400.0 mg/kg/injection, schedule: Q04DX003 (sc), vehicle: saline): 78 % of control
T/C (dose: 800.0 mg/kg/injection, schedule: Q04DX003 (sc), vehicle: saline): 80 % of control

CN(N=O)C(=O)N[C@@H](C=O)[C@@H](O)[C@H](O)[C@H](O)CO
T/C (dose: 150.0 mg/kg/injection, schedule: Q04DX003 (sc), vehicle: saline): 40 % of control
T/C (dose: 300.0 mg/kg/injection, schedule: Q04DX003 (sc), vehicle: saline): 4 % of control

CCCCCc1cc(O)c2c(c1)OC(C)(C)[C@@H]1CCC(C)=C[C@@H]21
T/C (dose: 150.0 mg/kg/injection, schedule: Q04DX003 (sc), vehicle: other): 94 % of control
T/C (dose: 300.0 mg/kg/injection, schedule: Q04DX003 (sc), vehicle: other): 91 % of control
T/C (dose: 600.0 mg/kg/injection, schedule: Q04DX003 (sc), vehicle: other): 76 % of control
T/C (dose: 1200.0 mg/kg/injection, schedule: Q04DX003 (sc), vehicle: other): 90 % of control

CN(C)N=Nc1ccc(C(N)=O)cc1
T/C (dose: 200.0 mg/kg/injection, schedule: Q04DX003 (ip), vehicle: saline with Tween-80): -20 % of control and -13 % of control

CCS/C(SC)=C(/c1ccccc1)[P+](c1ccccc1)(c1ccccc1)c1ccccc1
T/C (dose: 9.38 mg/kg/injection, schedule: Q04DX003 (sc), vehicle: Klucel (hydroxypropylcellulose) (HPC)): 79 % of control
T/C (dose: 18.75 mg/kg/injection, schedule: Q04DX003 (sc), vehicle: Klucel (hydroxypropylcellulose) (HPC)): 76 % of control
T/C (dose: 37.5 mg/kg/injection, schedule: Q04DX003 (sc), vehicle: Klucel (hydroxypropylcellulose) (HPC)): 110 % of control

COc1ccc(C(=O)/C(Br)=C/C(=O)O)cc1
T/C [2]: 194 % of control
T/C [3]: 158 % of control

CSc1cc(=O)n2c3ccccc3c3ccnc1c32
T/C (dose: 80.0 mg/kg/injection, schedule: Q04DX003 (sc), vehicle: saline with Tween-80): 56 % of control
T/C (dose: 160.0 mg/kg/injection, schedule: Q04DX003 (sc), vehicle: saline with Tween-80): 64 % of control
T/C (dose: 320.0 mg/kg/injection, schedule: Q04DX003 (sc), vehicle: saline with Tween-80): 107 % of control

CCNC(C)(C)C(SSS)c1ccco1 (stereo unspecified)
T/C [4]: 82 % of control
T/C [5]: 84 % of control
T/C [6]: 76 % of control

C=C(C)C(=O)O[C@H]1CC2=C[C@@H](C[C@@]3(C)O[C@@H]3[C@H]3OC(=O)C(=C)[C@@H]31)OC2=O
T/C (dose: 75.0 mg/kg/injection, schedule: Q04DX003 (sc), vehicle: Klucel (hydroxypropylcellulose) (HPC)): 64 % of control
T/C [4]: 91 % of control
T/C [5]: 58 % of control

NC1=NC(=O)N2CC12 (stereo unspecified)
T/C [7]: 101 % of control
T/C [8]: 102 % of control
T/C [1]: 108 % of control

Nc1ccn(C2OC(CO)C(O)C2O)c(=O)n1 (stereo unspecified)
T/C (dose: 15.63 mg/kg/injection, schedule: Q01DX010 (sc), vehicle: water): 56 % of control
T/C (dose: 31.25 mg/kg/injection, schedule: Q01DX010 (sc), vehicle: water): 91 % of control
T/C (dose: 62.5 mg/kg/injection, schedule: Q01DX010 (sc), vehicle: water): 55 % of control
T/C (dose: 125.0 mg/kg/injection, schedule: Q01DX010 (sc), vehicle: water): 2 % of control
T/C (dose: 500.0 mg/kg/injection, schedule: Q04DX003 (sc), vehicle: saline): 87 % of control
T/C (dose: 1000.0 mg/kg/injection, schedule: Q04DX003 (sc), vehicle: saline): 61 % of control

CC(/C=C/c1ccccc1)=Nc1ccccc1
T/C [9]: 63 % of control
T/C [10]: 108 % of control
T/C [11]: 83 % of control
T/C [12]: 100 % of control

CNC(=O)ON(C(C)=O)C(=O)NC
T/C [2]: 49 % of control
T/C [3]: 85 % of control
T/C (dose: 100.0 mg/kg/injection, schedule: Q01DX010 (sc), vehicle: saline): 41 % of control

CCCCCCCCCCC(OC(C)=O)C1CCC(C2CCC(C(O)CCCCCCCCCCCCC3C=C(C)OC3=O)O2)O1 (stereo unspecified)
T/C (dose: 5.0 mg/kg/injection, schedule: Q04DX003 (sc), vehicle: water): 93 % of control
T/C (dose: 10.0 mg/kg/injection, schedule: Q04DX003 (sc), vehicle: water): 114 % of control
T/C (dose: 20.0 mg/kg/injection, schedule: Q04DX003 (sc), vehicle: water): 108 % of control
T/C (dose: 40.0 mg/kg/injection, schedule: Q04DX003 (sc), vehicle: water): 110 % of control

CC(=O)N(C)O
T/C (dose: 150.0 mg/kg/injection, schedule: Q04DX003 (sc), vehicle: saline with Tween-80): 92 % of control

CN1CCc2c(c3ccccc3c3ccccc23)C1
T/C [4]: 58 % of control
T/C [5]: 55 % of control
T/C [6]: 48 % of control

C[C@]12C=CC(=O)C=C1CC[C@@H]1[C@@H]2[C@@H](O)C[C@@]2(C)[C@H]1CC[C@]2(O)C(=O)CO
T/C (dose: 50.0 mg/kg/injection, schedule: Q01DX010 (sc), vehicle: Klucel (hydroxypropylcellulose) (HPC)): 63 % of control

Cc1ccc(S(=O)(=O)NC(=O)OC23COCN2COC3)cc1
T/C (dose: 200.0 mg/kg/injection, schedule: Q04DX003 (sc), vehicle: saline with Tween-80): 118 % of control
T/C (dose: 400.0 mg/kg/injection, schedule: Q04DX003 (sc), vehicle: saline with Tween-80): 121 % of control
T/C (dose: 800.0 mg/kg/injection, schedule: Q04DX003 (sc), vehicle: saline with Tween-80): 153 % of control
T/C (dose: 1600.0 mg/kg/injection, schedule: Q04DX003 (sc), vehicle: saline with Tween-80): 112 % of control

CN1C(=O)C(=Cc2ccc(O)cc2)C(=O)N(C)C1=O
T/C [9]: 114 % of control
T/C [10]: 110 % of control
T/C [11]: 87 % of control
T/C [12]: 68 % of control

COc1cccc2c1C(=O)c1c(O)c3c(c(O)c1C2=O)C[C@@](O)(C(C)=O)C[C@@H]3OC1CC(N)C(O)C(C)O1 (stereo partly specified)
T/C (dose: 2.0 mg/kg/injection, schedule: Q01DX010 (sc), vehicle: saline): 109 % of control
T/C (dose: 4.0 mg/kg/injection, schedule: Q01DX010 (sc), vehicle: saline): 153 % of control
T/C (dose: 8.0 mg/kg/injection, schedule: Q01DX010 (sc), vehicle: saline): 31 % of control

O=c1cnn(C2OC(CO)C(O)C2O)c(=O)[nH]1 (stereo unspecified)
T/C (dose: 200.0 mg/kg/injection, schedule: Q01DX010 (sc), vehicle: saline): 42 % of control
T/C (dose: 400.0 mg/kg/injection, schedule: Q01DX010 (sc), vehicle: saline): 46 % of control
T/C (dose: 800.0 mg/kg/injection, schedule: Q01DX010 (sc), vehicle: saline): 35 % of control

CC[As](=O)(O)CC
T/C (dose: 25.0 mg/kg/injection, schedule: Q04DX003 (sc), vehicle: saline): 77 % of control
T/C [7]: 82 % of control
T/C [8]: 51 % of control
T/C [1]: 70 % of control

O=NN(CCCl)C(=O)NC1CCCCC1
T/C (dose: 12.5 mg/kg/injection, schedule: Q04DX003 (sc), vehicle: Klucel (hydroxypropylcellulose) (HPC)): 47 % of control
T/C (dose: 25.0 mg/kg/injection, schedule: Q04DX003 (sc), vehicle: Klucel (hydroxypropylcellulose) (HPC)): 29 % of control
T/C (dose: 26.66 mg/kg/injection, schedule: Q04DX003 (sc), vehicle: saline with Tween-80): 4 % of control
T/C (dose: 50.0 mg/kg/injection, schedule: Q04DX003 (sc), vehicle: Klucel (hydroxypropylcellulose) (HPC)): -25 % of control
T/C (dose: 53.33 mg/kg/injection, schedule: Q04DX003 (sc), vehicle: saline with Tween-80): -73 % of control
T/C (dose: 100.0 mg/kg/injection, schedule: Q04DX003 (sc), vehicle: Klucel (hydroxypropylcellulose) (HPC)): 4 % of control

COc1ccc2ccccc2c1C1NC(=O)c2ccccc2N1 (stereo unspecified)
T/C [5]: 113 % of control
T/C [6]: 78 % of control
T/C (dose: 1200.0 mg/kg/injection, schedule: Q04DX003 (sc), vehicle: Klucel (hydroxypropylcellulose) (HPC)): 83 % of control
T/C (dose: 2400.0 mg/kg/injection, schedule: Q04DX003 (sc), vehicle: Klucel (hydroxypropylcellulose) (HPC)): 83 % of control

CC(O)CCC(=O)c1ccoc1 (stereo unspecified)
T/C (dose: 15.0 mg/kg/injection, schedule: Q01DX010 (ip), vehicle: saline): 75 % of control
T/C (dose: 30.0 mg/kg/injection, schedule: Q01DX010 (ip), vehicle: saline): 121 % of control
